Patent US20240299386A1, “Novel imidazole derivatives having protein kinase inhibitory activity and uses thereof” (INDUSTRY-UNIVERSITY COOPERATION FOUNDATION HANYANG …, priority 2021, published 2024)
Values belong to the molecule of their own block, whether it stands above or below them.

Target: JNK3 (Homo sapiens, UniProt P53779)
Assay: Measurement of JNK3 enzyme activity
Type: biochemical
From the text: Experimental Example 1. Measurement of JNK3 Enzyme Activity

Chain of JNK3 (P53779 whole entry, species assumed): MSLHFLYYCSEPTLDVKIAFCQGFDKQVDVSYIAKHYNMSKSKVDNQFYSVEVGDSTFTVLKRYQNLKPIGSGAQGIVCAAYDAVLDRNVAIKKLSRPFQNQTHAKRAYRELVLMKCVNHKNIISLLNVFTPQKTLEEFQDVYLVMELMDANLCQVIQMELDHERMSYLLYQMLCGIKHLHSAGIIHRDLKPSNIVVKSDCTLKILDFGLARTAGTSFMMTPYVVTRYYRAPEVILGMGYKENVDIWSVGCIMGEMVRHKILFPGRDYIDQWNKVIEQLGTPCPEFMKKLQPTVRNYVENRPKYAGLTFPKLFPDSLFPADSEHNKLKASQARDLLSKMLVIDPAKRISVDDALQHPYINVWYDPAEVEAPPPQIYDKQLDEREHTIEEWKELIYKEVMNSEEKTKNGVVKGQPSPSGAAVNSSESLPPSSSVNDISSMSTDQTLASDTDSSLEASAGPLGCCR

Compound: CCOC(=O)C1Cc2nc(-c3ccc4c(c3)CCO4)n(-c3ccnc(N[C@@H]4CCCN(C(=O)C5CC5)C4)n3)c2C1 (stereo partly drawn) [Compound 19e, ethyl 1-(2-(((R)-1-(cyclopropanecarbonyl)piperidin-3-yl)amino)pyrimidin-4-yl)-2-(2,3-dihydrobenzofuran-5-yl)-1,4,5,6-tetracyclopenta[d]imidazol-5-carboxylate]
IC50 (Table 5): < 30 nM

Compound: CCOC(=O)C1Cc2nc(-c3ccc4ccccc4c3)n(-c3ccnc(N[C@@H]4CCN(C(=O)C5CC5)C4)n3)c2C1 (stereo partly drawn) [Compound 17c, ethyl 1-(2-(((R)-1-(cyclopropanecarbonyl)pyrrolidine-3-yl)amino)pyrimidin-4-yl)-2-(naphthalen-2-yl)-1,4,5,6-tetracyclopenta[d]imidazol-5-carboxylate]
IC50 (Table 3): < 30 nM

Compound: CCOC(=O)C1Cc2nc(-c3ccc4c(c3)CCO4)n(-c3ccnc(N[C@H]4CCN(C(=O)C5CC5)C4)n3)c2C1 (stereo partly drawn) [Compound 16e, ethyl 1-(2-(((S)-1-(cyclopropanecarbonyl)pyrrolidine-3-yl)amino)pyrimidin-4-yl)-2-(2,3-dihydrobenzofuran-5-yl)-1,4,5,6-tetracyclopenta[d]imidazol-5-carboxylate]
IC50 (Table 5): > 1000 nM

Compound: CCOC(=O)C1Cc2nc(-c3ccc(Cl)c(Cl)c3)n(-c3ccnc(N[C@H]4CCN(C(=O)C5CC5)C4)n3)c2C1 (stereo partly drawn) [Compound 16b, ethyl 1-(2-(((S)-1-(cyclopropanecarbonyl)pyrrolidine-3-yl)amino)pyrimidin-4-yl)-2-(3,4-dichlorophenyl)-1,4,5,6-tetracyclopenta[d]imidazol-5-carboxylate]
IC50 (Table 2): < 30 nM

Compound: CCOC(=O)C1Cc2nc(-c3ccc4c(c3)OCO4)n(-c3ccnc(N[C@H]4CCCN(C(=O)C5CC5)C4)n3)c2C1 (stereo partly drawn) [Compound 18d, ethyl 2-(benzo[d][1,3]dioxol-5-yl)-1-(2-(((S)-1-(cyclopropanecarbonyl)piperidin-3-yl)amino)pyrimidin-4-yl)-1,4,5,6-tetracyclopenta[d]imidazol-5-carboxylate]
IC50 (Table 4): < 30 nM

Compound: CCOC(=O)C1Cc2nc(-c3ccc4ccccc4c3)n(-c3ccnc(N[C@@H]4CCCN(C(=O)C5CC5)C4)n3)c2C1 (stereo partly drawn) [Compound 19c, ethyl 1-(2-(((R)-1-(cyclopropanecarbonyl)piperidin-3-yl)amino)pyrimidin-4-yl)-2-(naphthalen-2-yl)-1,4,5,6-tetracyclopenta[d]imidazol-5-carboxylate]
IC50 (Table 3): < 30 nM

Compound: CCOC(=O)C1Cc2nc(-c3ccc4c(c3)OCO4)n(-c3ccnc(N[C@@H]4CCCN(C(=O)C5CC5)C4)n3)c2C1 (stereo partly drawn) [Compound 19d, ethyl 2-(benzo[d][1,3]dioxol-5-yl)-1-(2-(((R)-1-(cyclopropanecarbonyl)piperidin-3-yl)amino)pyrimidin-4-yl)-1,4,5,6-tetracyclopenta[d]imidazol-5-carboxylate]
IC50 (Table 4): < 30 nM

Compound: CCOC(=O)C1Cc2nc(-c3ccc(Cl)c(Cl)c3)n(-c3ccnc(N[C@@H]4CCCN(C(=O)C5CC5)C4)n3)c2C1 (stereo partly drawn) [Compound 19b, ethyl 1-(2-(((R)-1-(cyclopropanecarbonyl)piperidin-3-yl)amino)pyrimidin-4-yl)-2-(3,4-dichlorophenyl)-1,4,5,6-tetracyclopenta[d]imidazol-5-carboxylate]
IC50 (Table 2): < 30 nM

Compound: NC(=O)C1Cc2nc(-c3ccc(Cl)c(Cl)c3)n(-c3ccnc(N[C@@H]4CCN(C(=O)C5CC5)C4)n3)c2C1 (stereo partly drawn) [Compound 21b, 1-(2-(((R)-1-(cyclopropanecarbonyl)pyrrolidine-3-yl)amino)pyrimidin-4-yl)-2-(3,4-dichlorophenyl)-1,4,5,6-tetracyclopenta[d]imidazol-5-carboxamide]
IC50 (Table 2): < 30 nM

Compound: CCOC(=O)C1Cc2nc(-c3ccc(Cl)c(Cl)c3)n(-c3ccnc(N[C@H]4CCCN(C(=O)C5CC5)C4)n3)c2C1 (stereo partly drawn) [Compound 18b, ethyl 1-(2-(((S)-1-(cyclopropanecarbonyl)piperidin-3-yl)amino)pyrimidin-4-yl)-2-(3,4-dichlorophenyl)-1,4,5,6-tetracyclopenta[d]imidazol-5-carboxylate]
IC50 (Table 2): < 30 nM

Compound: CCOC(=O)C1Cc2nc(-c3ccc(Cl)c(Cl)c3)n(-c3ccnc(N[C@@H]4CCN(C(=O)C5CC5)C4)n3)c2C1 (stereo partly drawn) [Compound 17b, ethyl 1-(2-(((R)-1-(cyclopropanecarbonyl)pyrrolidine-3-yl)amino)pyrimidin-4-yl)-2-(3,4-dichlorophenyl)-1,4,5,6-tetracyclopenta[d]imidazol-5-carboxylate]
IC50 (Table 2): < 30 nM

Compound: NC(=O)C1Cc2nc(-c3ccc(F)c(C(F)(F)F)c3)n(-c3ccnc(N[C@H]4CCN(C(=O)C5CC5)C4)n3)c2C1 (stereo partly drawn) [Compound 20a, 1-(2-(((S)-1-(cyclopropanecarbonyl)pyrrolidine-3-yl)amino)pyrimidin-4-yl)-2-(4-fluoro-3-(trifluoromethyl)phenyl)-1,4,5,6-tetracyclopenta[d]imidazol-5-carboxamide]
IC50 (Table 1): > 1000 nM

Compound: CCOC(=O)C1Cc2nc(-c3ccc(F)c(C(F)(F)F)c3)n(-c3ccnc(N[C@H]4CCCN(C(=O)C5CC5)C4)n3)c2C1 (stereo partly drawn) [Compound 18a, ethyl 1-(2-(((S)-1-(cyclopropanecarbonyl)piperidin-3-yl)amino)pyrimidin-4-yl)-2-(4-fluoro-3-(trifluoromethyl)phenyl)-1,4,5,6-tetracyclopenta[d]imidazol-5-carboxylate]
IC50 (Table 1): < 30 nM

Compound: CCOC(=O)C1Cc2nc(-c3ccc4c(c3)OCO4)n(-c3ccnc(N[C@H]4CCN(C(=O)C5CC5)C4)n3)c2C1 (stereo partly drawn) [Compound 16d, ethyl 2-(benzo[d][1,3]dioxol-5-yl)-1-(2-(((S)-1-(cyclopropanecarbonyl)pyrrolidine-3-yl)amino)pyrimidin-4-yl)-1,4,5,6-tetracyclopenta[d]imidazol-5-carboxylate]
IC50 (Table 4): > 1000 nM

Second part, the molecule after the results:

IC50 (Table 3): < 30 nM
Compound: CNC(=O)C1Cc2nc(-c3ccc4ccccc4c3)n(-c3ccnc(N[C@H]4CCCN(C(=O)C5CC5)C4)n3)c2C1 (stereo partly drawn) [Compound 26c, 1-(2-(((S)-1-(cyclopropanecarbonyl)piperidin-3-yl)amino)pyrimidin-4-yl)-2-(naphthalen-2-yl)-N-methyl-1,4,5,6-tetracyclopenta[d]imidazol-5-carboxamide]

IC50 (Table 5): > 1000 nM
Compound: CNC(=O)C1Cc2nc(-c3ccc4c(c3)CCO4)n(-c3ccnc(N[C@H]4CCCN(C(=O)C5CC5)C4)n3)c2C1 (stereo partly drawn) [Compound 26e, 1-(2-(((S)-1-(cyclopropanecarbonyl)piperidin-3-yl)amino)pyrimidin-4-yl)-2-(2,3-dihydrobenzofuran-5-yl)-N-methyl-1,4,5,6-tetracyclopenta[d]imidazol-5-carboxamide]

IC50 (Table 5): < 30 nM
Compound: NC(=O)C1Cc2nc(-c3ccc4c(c3)CCO4)n(-c3ccnc(N[C@H]4CCN(C(=O)C5CC5)C4)n3)c2C1 (stereo partly drawn) [Compound 20e, 1-(2-(((S)-1-(cyclopropanecarbonyl)pyrrolidine-3-yl)amino)pyrimidin-4-yl)-2-(2,3-dihydrobenzofuran-5-yl)-1,4,5,6-tetracyclopenta[d]imidazol-5-carboxamide]

IC50 (Table 1): > 1000 nM
Compound: NC(=O)C1Cc2nc(-c3ccc(F)c(C(F)(F)F)c3)n(-c3ccnc(NC4CCCN(C(=O)C5CC5)C4)n3)c2C1 (single isomer, unassigned) [Compound 23a]

IC50 (Table 5): < 30 nM
Compound: NC(=O)C1Cc2nc(-c3ccc4c(c3)CCO4)n(-c3ccnc(N[C@@H]4CCN(C(=O)C5CC5)C4)n3)c2C1 (stereo partly drawn) [Compound 21e, 1-(2-(((R)-1-(cyclopropanecarbonyl)pyrrolidine-3-yl)amino)pyrimidin-4-yl)-2-(2,3-dihydrobenzofuran-5-yl)-1,4,5,6-tetracyclopenta[d]imidazol-5-carboxamide]

IC50 (Table 5): < 30 nM
Compound: NC(=O)C1Cc2nc(-c3ccc4c(c3)CCO4)n(-c3ccnc(N[C@@H]4CCCN(C(=O)C5CC5)C4)n3)c2C1 (stereo partly drawn) [Compound 23e, 1-(2-(((R)-1-(cyclopropanecarbonyl)piperidin-3-yl)amino)pyrimidin-4-yl)-2-(2,3-dihydrobenzofuran-5-yl)-1,4,5,6-tetracyclopenta[d]imidazol-5-carboxamide]

IC50 (Table 3): < 30 nM
Compound: NC(=O)C1Cc2nc(-c3ccc4ccccc4c3)n(-c3ccnc(N[C@@H]4CCCN(C(=O)C5CC5)C4)n3)c2C1 (stereo partly drawn) [Compound 23c, 1-(2-(((R)-1-(cyclopropanecarbonyl)piperidin-3-yl)amino)pyrimidin-4-yl)-2-(naphthalen-2-yl)-1,4,5,6-tetracyclopenta[d]imidazol-5-carboxamide]

IC50 (Table 1): > 1000 nM
Compound: CNC(=O)C1Cc2nc(-c3ccc(F)c(C(F)(F)F)c3)n(-c3ccnc(N[C@H]4CCN(C(=O)C5CC5)C4)n3)c2C1 (stereo partly drawn) [Compound 24a, 1-(2-(((S)-1-(cyclopropanecarbonyl)pyrrolidine-3-yl)amino)pyrimidin-4-yl)-2-(4-fluoro-3-(trifluoromethyl)phenyl)-N-methyl-1,4,5,6-tetracyclopenta[d]imidazol-5-carboxamide]

IC50 (Table 5): < 30 nM
Compound: NC(=O)C1Cc2nc(-c3ccc4c(c3)CCO4)n(-c3ccnc(N[C@H]4CCCN(C(=O)C5CC5)C4)n3)c2C1 (stereo partly drawn) [Compound 22e, 1-(2-(((S)-1-(cyclopropanecarbonyl)piperidin-3-yl)amino)pyrimidin-4-yl)-2-(2,3-dihydrobenzofuran-5-yl)-1,4,5,6-tetracyclopenta[d]imidazol-5-carboxamide]

IC50 (Table 1): < 30 nM
Compound: CNC(=O)C1Cc2nc(-c3ccc(F)c(C(F)(F)F)c3)n(-c3ccnc(NC4CCCN(C(=O)C5CC5)C4)n3)c2C1 (single isomer, unassigned) [Compound 26a]

IC50 (Table 1): > 1000 nM
Compound: CNC(=O)C1Cc2nc(-c3ccc(F)c(C(F)(F)F)c3)n(-c3ccnc(NC4CCCN(C(=O)C5CC5)C4)n3)c2C1 (single isomer, unassigned) [Compound 27a]

IC50 (Table 4): > 1000 nM
Compound: NC(=O)C1Cc2nc(-c3ccc4c(c3)OCO4)n(-c3ccnc(N[C@H]4CCN(C(=O)C5CC5)C4)n3)c2C1 (stereo partly drawn) [Compound 20d, 2-(benzo[d][1,3]dioxol-5-yl)-1-(2-(((S)-1-(cyclopropanecarbonyl)pyrrolidine-3-yl)amino)pyrimidin-4-yl)-1,4,5,6-tetracyclopenta[d]imidazol-5-carboxamide]

IC50 (Table 4): < 30 nM
Compound: NC(=O)C1Cc2nc(-c3ccc4c(c3)OCO4)n(-c3ccnc(N[C@@H]4CCCN(C(=O)C5CC5)C4)n3)c2C1 (stereo partly shown) [Compound 23d]

IC50 (Table 3): < 30 nM
Compound: NC(=O)C1Cc2nc(-c3ccc4ccccc4c3)n(-c3ccnc(N[C@H]4CCN(C(=O)C5CC5)C4)n3)c2C1 (stereo partly drawn) [Compound 20c, 1-(2-(((S)-1-(cyclopropanecarbonyl)pyrrolidine-3-yl)amino)pyrimidin-4-yl)-2-(naphthalen-2-yl)-1,4,5,6-tetracyclopenta[d]imidazol-5-carboxamide]
